The results in this text go back to ChEMBL document CHEMBL3351520, “Discovery of lesser known flavones as inhibitors of NF-κB signaling in MDA-MB-231 breast cancer cells--A SAR study” (Bioorg Med Chem Lett, 2014).

For data set [1], the target named is T1, Nuclear factor NF-kappa-B complex (Homo sapiens) (UniProt Q00653+P19838+Q04206). In words: Inhibition of NF-kappaB signaling in human MDA-MB-231 cells assessed as reduction in PMA-stimulated COX2 mRNA expression at 5 uM pre-incubated for 8 hrs before PMA stimulation for 4 hrs by quantitative RT-PCR method. In kind it is cell-based.
Data set [2] concerns the target T1, Nuclear factor NF-kappa-B complex (Homo sapiens). The data set is described as follows: Inhibition of doxorubicin-stimulated NF-kappaB signaling (unknown origin) expressed in MDA-MB-231 cells at 5 uM incubated for 16 hrs by luciferase reporter gene assay. The format is cell-based. On the technique in general: In a reporter assay the amount or activity of a reporter protein is the signal.

The target is the same in data set [3]. The data set is described as follows: Inhibition of non-stimulated NF-kappaB signaling (unknown origin) expressed in MDA-MB-231 cells at 5 uM incubated for 16 hrs by luciferase reporter gene assay. The format is cell-based.
For data set [4] the target is unchanged. The data set is described as follows: Inhibition of NF-kappaB signaling in human MDA-MB-231 cells assessed as reduction in PMA-stimulated MMP9 mRNA expression at 5 uM pre-incubated for 8 hrs before PMA stimulation for 4 hrs by quantitative RT-PCR method. In kind it is cell-based.
The target is the same in data set [5]. In words: Inhibition of basal NF-kappaB signaling in human MDA-MB-231 cells assessed as reduction in MMP9 mRNA expression at 25 uM by quantitative RT-PCR method relative to untreated control. The format is cell-based.
Data set [6] shares this target. The data set is described as follows: Inhibition of NF-kappaB signaling in human MDA-MB-231 cells assessed as reduction in PMA-stimulated COX2 mRNA expression at 25 uM pre-incubated before PMA stimulation by quantitative RT-PCR method relative to untreated control. In kind it is cell-based.
Data set [7] has the same target. In words: Inhibition of basal NF-kappaB signaling in human MDA-MB-231 cells assessed as reduction in COX2 mRNA expression at 25 uM by quantitative RT-PCR method relative to untreated control. In kind it is cell-based.
Data set [8] has the same target. In words: Inhibition of NF-kappaB signaling in human MDA-MB-231 cells assessed as reduction in PMA-stimulated MMP9 mRNA expression at 25 uM pre-incubated before PMA stimulation by quantitative RT-PCR method relative to untreated control. The format is cell-based.
In data set [9] the test system is MDA-MB-231. In words: Induction apoptosis in PMA-stimulated human MDA-MB-231 cells assessed as mitochondrial disruption at 10 uM after 48 hrs by JC1 staining based fluorescence assay. The format is functional, cell-based.
Data set [10] has as its target T1, Nuclear factor NF-kappa-B complex (Homo sapiens). In words: Effect on NF-kappaB signaling in human MDA-MB-231 cells assessed as increase in MMP9 mRNA expression at 25 uM by quantitative RT-PCR method. The format is cell-based.
For data set [11] the target is unchanged. In words: Effect on NF-kappaB signaling in human MDA-MB-231 cells assessed as increase in COX2 mRNA expression at 25 uM by quantitative RT-PCR method. The format is cell-based.
Data set [12] has as its system MDA-MB-231. In words: Inhibition of cell migration of PMA-stimulated human MDA-MB-231 cells. The format is functional, cell-based.
For data set [13], the system named is MDA-MB-231. The data set is described as follows: Induction apoptosis in PMA-stimulated human MDA-MB-231 cells assessed as mitochondrial disruption 3.125 to 25 uM uM after 48 hrs by JC1 staining based fluorescence assay. In kind it is functional, cell-based.
Data set [14] deals with MDA-MB-231. In words: Cytotoxicity against non-stimulated human MDA-MB-231 cells assessed as induction of cell death up to 25 uM after 48 hrs by MTT assay. In kind it is functional. For orientation: Tetrazolium assays rely on reduction of a dye to a coloured formazan, in cell work by metabolically active cells.
For data set [15], the system named is MDA-MB-231. The data set is described as follows: Cytotoxicity against PMA-stimulated human MDA-MB-231 cells assessed as induction of cell death up to 25 uM after 48 hrs by MTT assay. In kind it is functional.
Data set [16] concerns the target T1, Nuclear factor NF-kappa-B complex (Homo sapiens). In words: Inhibition of basal NF-kappaB signaling in human MDA-MB-231 cells assessed as reduction in MMP9 mRNA expression at 12.5 uM by quantitative RT-PCR method relative to untreated control. The format is cell-based.
The target is the same in data set [17]. In words: Inhibition of basal NF-kappaB signaling in human MDA-MB-231 cells assessed as reduction in MMP9 mRNA expression at 12.5 uM by quantitative RT-PCR method. The format is cell-based.
For data set [18], the system named is MDA-MB-231. The data set is described as follows: Induction of cell cycle arrest in PMA-stimulated human MDA-MB-231 cells assessed as accumulation at G2/M phase at 25 uM after 48 hrs by propidium iodide staining based flow cytometry (reference value: 19%). In kind it is functional. In general terms: Flow cytometry measures light scatter and fluorescence of single cells or particles in a stream.

The subject of data set [19] is MDA-MB-231. In words: Induction of cell cycle arrest in PMA-stimulated human MDA-MB-231 cells assessed as accumulation at G2/M phase at 25 uM after 48 hrs by propidium iodide staining based flow cytometry. The format is functional.
In data set [20] the test system is MDA-MB-231. The data set is described as follows: Induction apoptosis in PMA-stimulated human MDA-MB-231 cells assessed as mitochondrial disruption up to 50 uM uM after 48 hrs by JC1 staining based fluorescence assay. In kind it is functional, cell-based.
Data set [21] in a line: Toxicity against human MDA-MB-231 cells after 48 hrs by MTT assay. The settings on record: read-out: MNCC. In kind it is cell-based.
Data set [22] addresses T1, Nuclear factor NF-kappa-B complex (Homo sapiens). In words: Inhibition of basal NF-kappaB signaling in human MDA-MB-231 cells assessed as reduction in MMP9 mRNA expression at 3.125 uM by quantitative RT-PCR method relative to untreated control. In kind it is cell-based.
The test system of data set [23] is MDA-MB-231. In words: Induction of cell cycle arrest in PMA-stimulated human MDA-MB-231 cells assessed as accumulation at G1 phase at 25 uM after 48 hrs by propidium iodide staining based flow cytometry (reference value: 52%). The format is functional.
The target in data set [24] is T1, Nuclear factor NF-kappa-B complex (Homo sapiens). The data set is described as follows: Inhibition of basal NF-kappaB signaling in human MDA-MB-231 cells assessed as reduction in MMP9 mRNA expression at 6.25 uM by quantitative RT-PCR method relative to untreated control. The format is cell-based.
Data set [25] has as its system MDA-MB-231. In words: Inhibition of cell invasion of PMA-stimulated human MDA-MB-231 cells. In kind it is functional, cell-based.
Data set [26] relates to MDA-MB-231. The data set is described as follows: Induction of cell cycle arrest in PMA-stimulated human MDA-MB-231 cells assessed as accumulation at S phase at 25 uM after 48 hrs by propidium iodide staining based flow cytometry (reference value: 29%). In kind it is functional.
Data set [27] addresses T1, Nuclear factor NF-kappa-B complex (Homo sapiens). The data set is described as follows: Inhibition of NF-kappaB signaling in human MDA-MB-231 cells assessed as reduction in PMA-stimulated MMP9 mRNA expression at 12.5 uM pre-incubated before PMA stimulation by quantitative RT-PCR method relative to untreated control. The format is cell-based.
The subject of data set [28] is MDA-MB-231. In words: Cytotoxicity against non-stimulated human MDA-MB-231 cells assessed as induction of cell death at 50 uM after 48 hrs by MTT assay. The format is functional.
Data set [29] has as its system MDA-MB-231. The data set is described as follows: Cytotoxicity against PMA-stimulated human MDA-MB-231 cells assessed as induction of cell death at 50 uM after 48 hrs by MTT assay. The format is functional.
The target in data set [30] is T1, Nuclear factor NF-kappa-B complex (Homo sapiens). The data set is described as follows: Inhibition of basal NF-kappaB signaling in human MDA-MB-231 cells assessed as reduction in MMP9 mRNA expression at 50 uM by quantitative RT-PCR method relative to untreated control. The format is cell-based.
The target is the same in data set [31]. In words: Inhibition of NF-kappaB signaling in human MDA-MB-231 cells assessed as reduction in PMA-stimulated MMP9 protein expression at 6.25 to 50 uM pre-incubated before PMA stimulation by SDS-PAGE gelatin zymography. In kind it is cell-based.
Data set [32] deals with MDA-MB-231. In words: Induction of cell cycle arrest in un-stimulated human MDA-MB-231 cells assessed as accumulation at G2/M phase at 25 uM after 48 hrs by propidium iodide staining based flow cytometry. The format is functional.
The target in data set [33] is T1, Nuclear factor NF-kappa-B complex (Homo sapiens). The data set is described as follows: Inhibition of NF-kappaB signaling in human MDA-MB-231 cells assessed as reduction in PMA-stimulated MMP9 mRNA expression at 50 uM pre-incubated before PMA stimulation by quantitative RT-PCR method relative to untreated control. In kind it is cell-based.

The source made the active and inactive calls. No cut-off for these calls is given here.

T1 sequence (P19838 whole entry, looked up): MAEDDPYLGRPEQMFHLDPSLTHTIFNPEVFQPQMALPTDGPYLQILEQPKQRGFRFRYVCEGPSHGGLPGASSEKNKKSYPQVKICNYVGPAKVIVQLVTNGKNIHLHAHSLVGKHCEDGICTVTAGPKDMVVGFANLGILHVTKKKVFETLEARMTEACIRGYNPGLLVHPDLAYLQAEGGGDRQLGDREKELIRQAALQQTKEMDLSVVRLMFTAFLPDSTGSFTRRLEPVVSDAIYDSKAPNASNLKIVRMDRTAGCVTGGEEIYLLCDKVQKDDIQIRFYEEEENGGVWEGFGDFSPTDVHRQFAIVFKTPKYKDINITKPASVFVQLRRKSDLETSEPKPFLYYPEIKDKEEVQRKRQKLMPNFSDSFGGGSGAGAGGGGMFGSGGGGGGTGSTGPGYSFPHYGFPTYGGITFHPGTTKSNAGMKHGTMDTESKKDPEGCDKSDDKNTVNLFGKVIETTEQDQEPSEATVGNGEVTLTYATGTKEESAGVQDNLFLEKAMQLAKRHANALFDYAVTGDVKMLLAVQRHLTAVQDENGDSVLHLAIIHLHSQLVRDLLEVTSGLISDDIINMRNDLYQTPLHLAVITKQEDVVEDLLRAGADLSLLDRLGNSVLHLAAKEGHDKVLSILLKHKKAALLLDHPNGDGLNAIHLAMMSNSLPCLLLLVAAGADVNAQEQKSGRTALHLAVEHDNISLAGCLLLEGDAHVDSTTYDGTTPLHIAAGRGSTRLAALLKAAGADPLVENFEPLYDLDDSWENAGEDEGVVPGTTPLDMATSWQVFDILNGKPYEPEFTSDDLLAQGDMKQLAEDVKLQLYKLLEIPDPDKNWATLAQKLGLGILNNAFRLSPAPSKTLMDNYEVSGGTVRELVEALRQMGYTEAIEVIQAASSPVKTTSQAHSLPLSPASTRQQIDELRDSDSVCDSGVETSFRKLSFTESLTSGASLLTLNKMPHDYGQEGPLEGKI
T1 sequence (Q00653 whole entry, looked up): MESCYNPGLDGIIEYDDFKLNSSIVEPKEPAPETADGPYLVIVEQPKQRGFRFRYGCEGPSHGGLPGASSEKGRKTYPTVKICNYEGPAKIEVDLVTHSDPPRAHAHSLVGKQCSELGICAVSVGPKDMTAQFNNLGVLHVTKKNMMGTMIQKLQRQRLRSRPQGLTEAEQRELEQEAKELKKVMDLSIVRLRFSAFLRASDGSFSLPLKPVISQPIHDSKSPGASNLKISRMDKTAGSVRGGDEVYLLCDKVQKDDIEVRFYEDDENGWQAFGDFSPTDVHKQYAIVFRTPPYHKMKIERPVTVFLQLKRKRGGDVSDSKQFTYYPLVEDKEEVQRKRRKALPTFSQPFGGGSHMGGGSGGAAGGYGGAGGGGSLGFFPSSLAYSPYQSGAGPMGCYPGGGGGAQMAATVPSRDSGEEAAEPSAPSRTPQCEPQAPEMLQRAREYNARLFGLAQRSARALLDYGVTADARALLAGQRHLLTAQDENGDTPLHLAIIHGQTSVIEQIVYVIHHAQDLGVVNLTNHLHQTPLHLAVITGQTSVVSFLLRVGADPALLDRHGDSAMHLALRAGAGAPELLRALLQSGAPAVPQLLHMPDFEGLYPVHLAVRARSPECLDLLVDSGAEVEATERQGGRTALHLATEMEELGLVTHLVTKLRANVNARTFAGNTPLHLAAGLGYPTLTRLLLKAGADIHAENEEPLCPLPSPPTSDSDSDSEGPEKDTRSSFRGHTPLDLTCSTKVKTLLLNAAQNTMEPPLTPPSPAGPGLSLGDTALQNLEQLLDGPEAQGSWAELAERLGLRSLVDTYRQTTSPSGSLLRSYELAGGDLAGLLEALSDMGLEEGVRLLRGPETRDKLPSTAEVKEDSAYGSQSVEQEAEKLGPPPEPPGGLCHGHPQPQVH
T1 sequence (Q04206 whole entry, looked up): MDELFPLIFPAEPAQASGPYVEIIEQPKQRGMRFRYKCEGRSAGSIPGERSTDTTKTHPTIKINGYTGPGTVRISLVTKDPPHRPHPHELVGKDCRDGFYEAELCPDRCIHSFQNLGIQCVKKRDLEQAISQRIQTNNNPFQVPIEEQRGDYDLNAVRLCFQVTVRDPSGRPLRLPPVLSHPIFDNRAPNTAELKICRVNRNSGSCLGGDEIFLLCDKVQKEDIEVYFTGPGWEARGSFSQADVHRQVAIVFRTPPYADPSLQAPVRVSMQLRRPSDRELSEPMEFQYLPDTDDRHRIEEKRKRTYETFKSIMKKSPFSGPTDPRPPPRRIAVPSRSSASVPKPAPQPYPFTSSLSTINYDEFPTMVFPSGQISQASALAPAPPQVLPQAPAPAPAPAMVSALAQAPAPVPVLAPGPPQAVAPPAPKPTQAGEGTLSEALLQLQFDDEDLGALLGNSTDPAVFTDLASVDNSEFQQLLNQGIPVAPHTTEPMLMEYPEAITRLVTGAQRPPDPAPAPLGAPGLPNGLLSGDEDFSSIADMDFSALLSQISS

For `C=C1C(=O)O[C@@H]2C3O[C@]3(C)CC/C=C(\C)CC[C@@H]12` (stereo partly drawn), the inhibition entry in data set [1], in data set [2], in [3] and in data set [4] was “Active” in each case.

Take `COc1ccc(-c2cc(=O)c3c(O)cc(O)cc3o2)cc1`: the inhibition result in data set [5], in data set [6], in data set [7] and in data set [8] was “Active” in each case.

Consider `COc1ccc(-c2cc(=O)c3c(O)cc(O)cc3o2)cc1O`, for which the inhibition entry in data set [5], in data set [6], in data set [7] and in data set [8] was “Active” throughout.

As for `COc1cccc2c1C(=O)c1c(O)c3c(c(O)c1C2=O)C[C@@](O)(C(=O)CO)C[C@@H]3O[C@H]1C[C@H](N)[C@H](O)[C@H](C)O1`, the result in the data set with MDA-MB-231 [9] was Active.

Regarding `O=c1c(O)c(-c2ccc(O)c(O)c2)oc2c(O)c(O)cc(O)c12`, the result in [10] and in data set [11] was Active.

As to `O=c1c(O)c(-c2ccc(O)c(O)c2)oc2cc(O)c(O)c(O)c12`, the result in data set [10] and in data set [11] was Active.

On to `O=c1c(O)c(-c2ccc(O)c(O)c2)oc2cc(O)cc(O)c12`, for which the inhibition entry in [5], in [6], in [7] and in data set [8] was “Active” throughout. Besides, the inhibition entry with MDA-MB-231 [12] is “inactive”. In addition, the result in the data set with MDA-MB-231 [13] was Active.

In the case of `COc1cc(-c2cc(=O)c3c(O)cc(O)cc3o2)ccc1O` [CHRYSOERIOL], the fold change (FC) is 0.211 in data set [5]; 0.208 in [16]; 2.11 in data set [8]; 0.708 in [22]; 0.361 in data set [24]; 3.67 in [27]. The fold change (FC) amounted to 0.204 in data set [30] and 1.33 in data set [33]. Also, the Activity is less than 10% with MDA-MB-231 [14]; less than 10% in the data set on MDA-MB-231 [15]; 39% in the data set with MDA-MB-231 [18]; “Dose-dependent effect” in the data set with MDA-MB-231 [19]; 34% in the data set with MDA-MB-231 [23]; 27% in the data set on MDA-MB-231 [26]. The Activity with MDA-MB-231 [28] is 10%; with MDA-MB-231 [29], 10%; in the data set with MDA-MB-231 [32] it was “Dose-dependent effect”. Moreover, the inhibition entry in the data set on MDA-MB-231 [12] is “Dose-dependent effect”; in [17], 80%; in the data set with MDA-MB-231 [25] it was “Dose-dependent effect”. Besides, the result in the data set on MDA-MB-231 [20] was inactive. Moreover, the inhibition result in data set [6], in data set [7] and in [31] was “Active” in each case. In addition, the MNTC at 48 h in data set [21] turned out to be 25 µM.

What is called inhibition is the percentage by which the read-out fell short of the control.
